# Results from article PMC4286194 (Biochemical Journal, 2015).
# Columns and labels:
# [1] = molecular target: TGFBR1 (Homo sapiens, UniProt P36897); test: Kinase profiling; assay type: biochemical
# [2] = molecular target: STK33 (Homo sapiens, UniProt Q9BYT3); test: Kinase profiling; assay type: biochemical
# [3] = molecular target: PHK (Homo sapiens, UniProt Q16816); test: Kinase profiling; assay type: biochemical
# [4] = molecular target: T1, BTK (Homo sapiens, UniProt Q06187); test: Kinase profiling; assay type: biochemical
# [5] = molecular target: YES1 (Homo sapiens, UniProt P07947); test: Kinase profiling; assay type: biochemical
# [6] = molecular target: T2, SIK3 (Homo sapiens, UniProt Q9Y2K2); test: Kinase assay, IC50 curve; assay type: biochemical; conditions: read-out: IC50 against SIK3
# T2 construct: GST; made in house; host or cells: HEK293 cells
# [7] = molecular target: BRK (Homo sapiens, UniProt Q13882); test: Kinase profiling; assay type: biochemical
# [8] = molecular target: Lck (Homo sapiens, UniProt P06239); test: Kinase profiling; assay type: biochemical
# [9] = molecular target: EPH-B4 (Homo sapiens, UniProt P54760); test: Kinase profiling; assay type: biochemical
# [10] = tested on: Bcr-Abl, Src and Btk
# Method: RAW264.7 cells were cultured in DMEM containing 10% FBS, 2 mM glutamine and penicillin and streptomycin. […] Cells were treated for 1 h with or without inhibitors and then stimulated for up to 24 h with either 1 μg/ml Pam3CSK4 or 100 ng/ml LPS.
# Cells were extracted in lysis buffer [50 mM Tris/HCl, pH 7.4, 1 mM EDTA, 1 mM EGTA, 50 mM NaF, 5 mM sodium pyrophosphate, 10 mM sodium β-glycerol 1-phosphate, 1 mM DTT, 1 mM sodium orthovanadate, 0.27 M sucrose, 1% (v/v) Triton X-100, 1 μg/ml aprotinin, 1 μg/ml leupeptin and 1 mM PMSF]. Cell extracts were clarified by centrifugation and protein concentrations were determined using the Bradford assay. To immunoprecipitate endogenous CRTC3, 1 mg of cell extract was incubated with 5 μg of anti-CRTC3 [13] covalently cross-linked on to Protein G–Sepharose. Immune complexes were washed three times with lysis buffer, eluted in 1% SDS and separated by SDS/PAGE. To detect proteins in cell lysates, 20 μg of protein extract was separated by SDS/PAGE. After transfer to PVDF membranes, proteins were detected by immunoblotting and visualized by treating the blots with ECL (GE Healthcare) followed by autoradiography.
# [11] = molecular target: PKD1 (Homo sapiens, UniProt Q15139); test: Kinase profiling; assay type: biochemical
# [12] = molecular target: T1, BTK; test: Kinase assay, IC50 curve; assay type: biochemical; design: BTK (amino acids 2–659); His6 (N); made in house; host or cells: Sf9 insect cells; conditions: read-out: IC50 against BTK
# [13] = molecular target: EPH-B2 (Homo sapiens, UniProt P29323); test: Kinase profiling; assay type: biochemical
# [14] = molecular target: Src (Homo sapiens, UniProt P12931); test: Kinase profiling; assay type: biochemical
# Sequence of Src (P12931 whole entry): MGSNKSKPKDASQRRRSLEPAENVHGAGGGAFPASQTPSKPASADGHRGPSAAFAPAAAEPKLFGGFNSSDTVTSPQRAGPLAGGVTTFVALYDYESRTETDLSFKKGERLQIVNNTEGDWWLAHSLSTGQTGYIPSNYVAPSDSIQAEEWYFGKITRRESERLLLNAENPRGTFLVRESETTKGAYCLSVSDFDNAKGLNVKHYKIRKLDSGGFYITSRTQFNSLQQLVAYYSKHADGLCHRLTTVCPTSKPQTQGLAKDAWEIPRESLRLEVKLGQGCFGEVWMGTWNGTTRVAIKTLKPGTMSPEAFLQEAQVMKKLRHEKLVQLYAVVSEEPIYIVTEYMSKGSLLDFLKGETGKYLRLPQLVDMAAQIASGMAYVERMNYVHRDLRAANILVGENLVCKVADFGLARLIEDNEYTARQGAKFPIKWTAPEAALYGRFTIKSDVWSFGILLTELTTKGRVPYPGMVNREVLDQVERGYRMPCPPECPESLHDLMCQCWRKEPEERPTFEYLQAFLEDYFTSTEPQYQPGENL
# Sequence of YES1 (P07947 whole entry): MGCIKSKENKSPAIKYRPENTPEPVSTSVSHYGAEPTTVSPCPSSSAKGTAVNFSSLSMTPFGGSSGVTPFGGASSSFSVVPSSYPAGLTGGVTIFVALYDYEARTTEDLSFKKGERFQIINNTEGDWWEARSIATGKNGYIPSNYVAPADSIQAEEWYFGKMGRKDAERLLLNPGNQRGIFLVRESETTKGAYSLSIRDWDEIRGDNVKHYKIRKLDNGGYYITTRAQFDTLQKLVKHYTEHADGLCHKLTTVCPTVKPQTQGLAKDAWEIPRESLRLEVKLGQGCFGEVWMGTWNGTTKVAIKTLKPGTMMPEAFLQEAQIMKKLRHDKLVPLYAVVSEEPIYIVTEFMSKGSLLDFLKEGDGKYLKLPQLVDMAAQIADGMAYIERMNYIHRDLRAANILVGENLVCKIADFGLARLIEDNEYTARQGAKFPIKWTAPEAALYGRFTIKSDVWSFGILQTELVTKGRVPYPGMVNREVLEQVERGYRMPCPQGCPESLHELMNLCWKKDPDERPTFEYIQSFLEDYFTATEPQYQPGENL
# Sequence of BRK (Q13882 whole entry): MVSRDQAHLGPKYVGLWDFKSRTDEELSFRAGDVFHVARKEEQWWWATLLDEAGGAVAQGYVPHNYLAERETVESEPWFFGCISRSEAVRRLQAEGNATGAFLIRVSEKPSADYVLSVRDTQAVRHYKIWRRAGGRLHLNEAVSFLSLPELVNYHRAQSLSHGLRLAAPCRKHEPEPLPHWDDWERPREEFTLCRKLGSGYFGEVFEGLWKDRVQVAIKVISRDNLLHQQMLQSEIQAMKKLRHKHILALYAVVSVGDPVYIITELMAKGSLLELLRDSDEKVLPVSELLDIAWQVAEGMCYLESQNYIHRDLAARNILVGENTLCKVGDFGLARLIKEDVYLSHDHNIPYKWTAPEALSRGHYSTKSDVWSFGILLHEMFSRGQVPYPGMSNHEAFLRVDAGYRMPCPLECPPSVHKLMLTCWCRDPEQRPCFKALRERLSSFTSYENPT
# Sequence of EPH-B2 (P29323 19-1055): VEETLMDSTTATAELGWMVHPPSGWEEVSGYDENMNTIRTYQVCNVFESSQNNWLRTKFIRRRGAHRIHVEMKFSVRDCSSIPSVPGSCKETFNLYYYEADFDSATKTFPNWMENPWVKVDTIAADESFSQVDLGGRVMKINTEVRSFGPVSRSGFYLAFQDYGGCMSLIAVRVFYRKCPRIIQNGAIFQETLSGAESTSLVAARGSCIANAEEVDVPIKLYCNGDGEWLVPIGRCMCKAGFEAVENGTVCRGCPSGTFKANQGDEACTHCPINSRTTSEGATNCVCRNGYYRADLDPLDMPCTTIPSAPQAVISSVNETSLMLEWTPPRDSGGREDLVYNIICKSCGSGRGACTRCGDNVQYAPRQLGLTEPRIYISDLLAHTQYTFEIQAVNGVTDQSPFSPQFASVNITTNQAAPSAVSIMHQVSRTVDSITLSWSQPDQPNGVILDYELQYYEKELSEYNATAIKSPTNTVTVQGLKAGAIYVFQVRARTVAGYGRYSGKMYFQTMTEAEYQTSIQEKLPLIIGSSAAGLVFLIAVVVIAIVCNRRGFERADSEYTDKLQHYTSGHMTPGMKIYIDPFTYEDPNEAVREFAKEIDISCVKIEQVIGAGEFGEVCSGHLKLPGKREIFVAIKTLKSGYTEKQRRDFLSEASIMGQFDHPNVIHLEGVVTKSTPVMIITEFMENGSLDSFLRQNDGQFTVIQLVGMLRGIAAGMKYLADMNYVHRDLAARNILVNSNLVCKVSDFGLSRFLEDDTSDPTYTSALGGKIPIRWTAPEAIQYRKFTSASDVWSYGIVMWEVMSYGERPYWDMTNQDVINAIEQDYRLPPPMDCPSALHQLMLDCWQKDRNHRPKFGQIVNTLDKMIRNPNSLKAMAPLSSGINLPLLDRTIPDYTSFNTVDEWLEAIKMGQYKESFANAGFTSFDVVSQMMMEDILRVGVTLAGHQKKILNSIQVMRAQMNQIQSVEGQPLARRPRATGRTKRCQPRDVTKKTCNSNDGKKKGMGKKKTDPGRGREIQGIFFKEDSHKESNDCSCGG
# Sequence of PHK (Q16816 whole entry): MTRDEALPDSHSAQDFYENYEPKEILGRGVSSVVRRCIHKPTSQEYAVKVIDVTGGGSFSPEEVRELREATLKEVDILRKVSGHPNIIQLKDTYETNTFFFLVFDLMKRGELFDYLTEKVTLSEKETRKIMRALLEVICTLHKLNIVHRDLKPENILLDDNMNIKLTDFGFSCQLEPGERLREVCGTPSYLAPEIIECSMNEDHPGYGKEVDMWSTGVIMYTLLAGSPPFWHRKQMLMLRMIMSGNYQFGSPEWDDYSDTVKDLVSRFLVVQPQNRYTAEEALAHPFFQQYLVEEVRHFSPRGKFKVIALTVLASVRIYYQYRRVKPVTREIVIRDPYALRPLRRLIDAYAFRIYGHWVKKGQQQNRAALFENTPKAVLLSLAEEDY
# Sequence of TGFBR1 (P36897 34-503): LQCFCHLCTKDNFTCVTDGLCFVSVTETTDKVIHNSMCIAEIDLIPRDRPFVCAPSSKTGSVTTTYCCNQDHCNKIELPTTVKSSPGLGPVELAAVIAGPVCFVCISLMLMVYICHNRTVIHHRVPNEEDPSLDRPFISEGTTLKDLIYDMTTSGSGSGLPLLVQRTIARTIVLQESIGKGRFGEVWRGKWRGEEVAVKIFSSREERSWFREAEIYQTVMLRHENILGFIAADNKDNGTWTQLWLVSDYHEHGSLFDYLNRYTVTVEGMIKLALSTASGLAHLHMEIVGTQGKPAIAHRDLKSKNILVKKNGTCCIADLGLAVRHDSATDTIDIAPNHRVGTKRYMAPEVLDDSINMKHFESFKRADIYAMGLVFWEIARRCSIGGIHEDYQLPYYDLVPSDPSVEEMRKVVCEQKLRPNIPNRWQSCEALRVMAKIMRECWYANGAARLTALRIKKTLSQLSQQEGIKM
# Sequence of Lck (P06239 whole entry): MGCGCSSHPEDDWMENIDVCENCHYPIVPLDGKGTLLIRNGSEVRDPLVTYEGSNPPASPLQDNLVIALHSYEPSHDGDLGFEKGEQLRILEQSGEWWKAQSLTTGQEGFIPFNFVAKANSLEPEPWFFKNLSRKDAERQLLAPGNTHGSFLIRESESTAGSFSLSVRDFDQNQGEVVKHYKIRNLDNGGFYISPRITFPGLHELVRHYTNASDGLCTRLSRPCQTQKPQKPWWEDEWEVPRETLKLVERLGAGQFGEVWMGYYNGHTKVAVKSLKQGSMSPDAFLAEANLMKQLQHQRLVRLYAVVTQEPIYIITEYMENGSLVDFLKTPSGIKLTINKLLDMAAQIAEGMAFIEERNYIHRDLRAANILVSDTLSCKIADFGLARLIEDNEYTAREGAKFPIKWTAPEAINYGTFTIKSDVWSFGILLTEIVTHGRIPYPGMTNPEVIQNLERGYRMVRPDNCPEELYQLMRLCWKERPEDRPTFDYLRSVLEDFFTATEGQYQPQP
# Sequence of EPH-B4 (P54760 16-987): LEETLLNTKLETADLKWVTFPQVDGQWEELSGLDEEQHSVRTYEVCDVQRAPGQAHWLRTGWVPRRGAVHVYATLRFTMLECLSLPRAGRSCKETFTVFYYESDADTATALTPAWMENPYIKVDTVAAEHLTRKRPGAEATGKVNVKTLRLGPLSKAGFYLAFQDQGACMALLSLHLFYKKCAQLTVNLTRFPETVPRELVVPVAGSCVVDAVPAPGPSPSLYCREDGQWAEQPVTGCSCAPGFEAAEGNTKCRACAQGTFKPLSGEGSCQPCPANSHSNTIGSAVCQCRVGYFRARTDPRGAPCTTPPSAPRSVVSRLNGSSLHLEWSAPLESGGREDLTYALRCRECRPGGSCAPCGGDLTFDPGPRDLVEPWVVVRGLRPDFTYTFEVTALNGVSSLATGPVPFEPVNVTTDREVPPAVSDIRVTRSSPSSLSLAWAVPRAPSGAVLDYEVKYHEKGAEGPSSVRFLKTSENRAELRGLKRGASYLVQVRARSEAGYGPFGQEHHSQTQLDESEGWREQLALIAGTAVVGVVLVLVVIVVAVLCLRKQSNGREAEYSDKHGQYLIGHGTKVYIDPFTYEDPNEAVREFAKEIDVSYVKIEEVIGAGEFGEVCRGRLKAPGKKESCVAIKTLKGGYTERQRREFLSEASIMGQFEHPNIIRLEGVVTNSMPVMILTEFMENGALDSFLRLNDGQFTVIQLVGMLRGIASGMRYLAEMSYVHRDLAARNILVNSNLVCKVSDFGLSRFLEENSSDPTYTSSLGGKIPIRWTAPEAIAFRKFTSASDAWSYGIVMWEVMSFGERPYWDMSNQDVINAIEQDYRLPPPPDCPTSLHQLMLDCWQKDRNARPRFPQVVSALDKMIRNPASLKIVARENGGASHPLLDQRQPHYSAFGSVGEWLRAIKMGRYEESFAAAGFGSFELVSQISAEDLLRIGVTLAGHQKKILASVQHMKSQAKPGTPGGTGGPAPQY
structure (smiles),measurement,setting,value
"COc1cc(Nc2c(C#N)cnc3cc(OCCCN4CCN(C)CC4)c(OC)cc23)c(Cl)cc1Cl [Bosutinib, bosutinib]",remaining activity at 0.1 µM,[1]; 0.1 µM,87 ± 14%
same,remaining activity at 1 µM,[1]; 1 µM,101 ± 6%
same,remaining activity at 0.1 µM,[2]; 0.1 µM,34%
same,remaining activity at 1 µM,[2]; 1 µM,17 ± 4%
same,remaining activity at 0.1 µM,[3]; 0.1 µM,55%
same,remaining activity at 1 µM,[3]; 1 µM,12%
same,remaining activity at 0.1 µM,[4]; 0.1 µM,1%
same,remaining activity at 1 µM,[4]; 1 µM,1%
same,remaining activity at 0.1 µM,[5]; 0.1 µM,2 ± 1%
same,remaining activity at 1 µM,[5]; 1 µM,1%
same,IC50,[6],18 nM
same,remaining activity at 0.1 µM,[7]; 0.1 µM,88 ± 11%
same,remaining activity at 1 µM,[7]; 1 µM,48%
same,remaining activity at 0.1 µM,[8]; 0.1 µM,1%
same,remaining activity at 1 µM,[8]; 1 µM,1%
same,remaining activity at 0.1 µM,[9]; 0.1 µM,10%
same,remaining activity at 1 µM,[9]; 1 µM,2%
same,"Activity of Bcr-Abl, Src and Btk in primary mouse macrophages",[10],completely blocking
same,remaining activity at 0.1 µM,[11],89 ± 2%
same,IC50,[12],15 nM
same,remaining activity at 0.1 µM,[13]; 0.1 µM,1 ± 1%
same,remaining activity at 1 µM,[13]; 1 µM,0%
same,remaining activity at 0.1 µM,[14]; 0.1 µM,1%
same,remaining activity at 1 µM,[14]; 1 µM,1%
